2 molecules from patent US20230381774A1, “MICROFLUDIC LAB-ON-CHIP DEVICE, MATRIX, SMALL MOLECULES AND THREE-DIMENSIONAL SPHEROIDS FOR CELL REPROGRAMMING” (The Regents of the University of California, priority 2022, published 2023) can be followed below.

Format in all cases: cell-based, mouse
In assay [1] the test system is H3K4-specific histone demethylase (HDM). Kind of assay: H3K4 HDM activity assay on nuclear extracts of treated fibroblasts. Conditions: 10 μM blebbistatin or 5 μM PF573228, 2 hours, vs DMSO. The procedure: (§1) Nuclear protein extractions were isolated from 5×10^5 fibroblasts treated with vehicle control (DMSO), 10 μM blebbistatin or 5 μM PF573228 for 2 hours using a nuclear extraction kit (EpiGentek, OP-0002), in accordance with the manufacturer's instructions. HAT, HDAC, H3K4 HMT, H3K4 HDM and DNMT activity were measured using the HAT activity/inhibition assay (EpiGentek, P-4003-048), HDAC activity/inhibition assay (EpiGentek, P-4034-096), Histone methyltransferase (H3K4 specific) activity/inhibition assay (EpiGentek, P-3002-1), Histone Demethylase (H3K4 specific) activity/inhibition assay (EpiGentek, P-3074-48), and DNMT activity/inhibition assay (EpiGentek, P-3009-048), respectively. Per the manufacturer's instructions, 20 μg of nuclear extract was added into the assay wells and incubated at 37° C. for 90 minutes. After adding the color developer solution, the absorbance was measured using a plate reader (Infinite […], 30050303) at 450 nm for all the assays with the exception of the Histone Demethylase (H3K4 specific) activity/inhibition assay where we measured the fluorescence using a fluorescence microplate reader at 530 EX/590 EM nm.

Assay [2] has as its system iN cells. Kind of assay: Immunostaining of mature neuronal markers in iN cells. Conditions: iN cells derived in presence of inhibitor. The procedure: (§2) For immunostaining, cells were fixed with 4% paraformaldehyde (Electron Microscopy Sciences), permeabilized with 0.5% Triton-X-100 (Sigma), and blocked with 5% donkey serum (Jackson Immunoresearch) in phosphate buffered saline (PBS). For actin-cytoskeleton staining, samples were incubated with fluorescein isothiocyanate-conjugated phalloidin (Invitrogen) for 1 hour. Primary antibodies were incubated for 1 hour at room temperature or overnight at 4° C., followed by 1-hour incubation with Alexa 488 and/or Alexa 546-labeled secondary antibodies (Molecular Probes). Nuclei were stained with 4,6-diamino-2-phenylindole (DAPI) (Invitrogen).

The test system of assay [3] is iN cells. Briefly: Patch-clamp electrophysiology of iN cells. The settings on record: for functionality of derived iN cells: electrophysiological analysis. The procedure: For functional assessment of the iN cells, patch-clamp electrophysiology analysis was performed. All experiments were conducted at room temperature (22° C.-24° C.). All reagents were purchased from Sigma-Aldrich unless otherwise specified. Whole-cell recording was made from neurons using a patch clamp amplifier (MultiClamp 700B, Axon Instr.) under infrared differential interference contrast optics. Microelectrodes were made from borosilicate glass capillaries, with a resistance of 4-5 MW. For recording action potentials, cells were held at −70 mV in a […]. The intracellular solution for whole-cell recording of EPSPs and action potentials contained (in mM) 140 potassium gluconate, 5 KCl, 10 HEPES, 0.2 EGTA, 2 MgCl2, 4 MgATP, 0.3 Na2GTP and 10 Na2-phosphocreatine, pH 7.2 (adjusted with KOH).
For recording spontaneous EPSCs (sEPSCs), cells were pre-treated with the extracellular bath solution containing 50 μM picrotoxin (Tocris) to exclude an inhibitory synaptic activity and held at −70 mV in a voltage-clamp mode with the intracellular solution containing (in mM) 130 CsMeSO4, 7 CsCl, 10 HEPES, 1 EGTA, 4 MgATP, 0.3 Na2GTP, and 10 Na2-phosphocreatine, pH 7.3 (adjusted with CsOH). After recording basal sEPSC responses for 5 min, 10 μM CNQX (Tocris) and 100 μM D,L-APV (Tocris) were co-treated to test whether sEPSCs were mediated by activation of both AMPA- and NMDA-type of glutamate receptors. For measuring spontaneous IPSC (sIPSCs), cells were pre-treated with the bath solution containing 10 μM CNQX and 100 μM D,L-APV and held at −70 mV with the intracellular solution containing (in mM) 137 CsCl, 10 HEPES, 1 EGTA, 4 MgATP, 0.3 Na2GTP, and 10 Na2-phosphocreatine, pH 7.3 (adjusted with CsOH). 50 μM picrotoxin was then treated to test a dependency of sIPSCs on GABA receptors after acquiring basal sIPSC responses for 5 min. Series resistance (10-25 MΩ) and input resistance (˜200 MΩ using potassium-based internal solution; 1-2 G2 using Cs-based internal solution) were monitored throughout the whole-cell recording or compared before and after sEPSC/IPSC recordings.
Off-line analyses of action potential properties (number, amplitude, half-width) and the amplitude and frequency of sEPSC and sIPSC were performed by using a threshold event detection function of the Clampfit software (Molecular Devices). Visualization of analysis results and their statistical tests were performed by using GraphPad Prism® 6.0 software.
A general note: The patch-clamp technique gives a direct electrical read-out from membranes.

A further assay has as its system calponin and αSMA. Kind of assay: Mesenchymal marker expression (immunostaining, qRT-PCR, Western blot). The procedure: as §2
RNA was isolated from samples using Trizol® (Ambion) according to the manufacturer's instructions. For cDNA synthesis, 500 ng of RNA was reverse transcribed using Maxima First Strand cDNA Synthesis Kit (ThermoFisher Scientific). Template DNA was amplified using Maxima SYBR Green/Fluorescein qPCR Master Mix (ThermoFisher Scientific) on a CFX qPCR machine (Bio-Rad). qRT-PCR data were analyzed using CFX Manager 3.1 (Bio-Rad) and gene expression levels were normalized to 18S.
Fibroblasts were lysed and collected in Laemmli buffer ([…] Tris-HCl, 10% glycerol, 2% SDS, 5% 2-mercaptoethanol, 0.002% bromophenol blue) containing RIPA buffer (50 mM Tris-HCl, 150 mM NaCl, 1% Triton-X-100, 0.1% SDS, 10 mM NaF, 0.5% sodium deoxycholate) along with protease inhibitors (PMSF, Na3VO4 and Leupeptin) on ice. Protein lysates were centrifuged to pellet cell debris, and the supernatant was collected and used in further analysis. Protein samples were run using SDS-PAGE and transferred to polyvinylidene fluoride (PVDF) membranes. Membranes were blocked in 3% nonfat milk and incubated with primary antibodies overnight. Primary antibodies include pFAK, FAK, αSMA, Calponin, pERK, ERK, and GAPDH. Membranes were washed with Tris-Buffered Saline+0.05% Tween-20 and incubated with HRP-conjugated IgG secondary antibodies (Santa Cruz Biotechnologies) for one hour. Protein bands were visualized using Western Lightning™ Plus—Enhanced Chemiluminscence Substrate (Perkin Elmer Life & Analytical Sciences) and imaged on a ChemiDoc XRS system (Bio-Rad).

The test system of assay [4] is histone deacetylase (HDAC). Briefly: HDAC activity assay on nuclear extracts of treated fibroblasts. The settings on record: 10 μM blebbistatin or 5 μM PF573228, 2 hours, vs DMSO. The procedure: as §1
The mark [5] stands for this setting: absence vs presence of blebbistatin.

“Also recorded” adds a separate entry of the source.

As for `CS(=O)(=O)c1cccc(CNc2nc(Nc3ccc4c(c3)CCC(=O)N4)ncc2C(F)(F)F)c1` [PF573228], the “H3K4-specific HDM activity” value in assay [1] was “differences”. Besides, the “mature neuronal marker expression of derived iN cells” value in the assay with iN cells [2] is “expressed neuronal markers, including NeuN, MAP2, and synapsin; also recorded: displaying a typical neuronal morphology and co-expressing mature neuronal markers, NeuN, MAP2 and synapsin”. In addition, the “functionality of derived iN cells” value in the assay with iN cells [3] was “exhibited functional neuronal properties as assessed by electrophysiological analysis”. Further, the “calponin and αSMA expression in BAM-transduced fibroblasts” value in the assay with calponin and αSMA (treated for 2 days) is reported as “decreased”. Also, the HDAC activity result in assay [4] is given as “differences”.

Consider `Cc1ccc2c(c1)C(=O)C1(O)CCN(c3ccccc3)C1=N2` (centres unmarked) [blebbistatin], for which the “H3K4-specific HDM activity” value in assay [1] was “reduced”. The “mature neuronal marker expression of derived iN cells” value with iN cells [2] was “expressed NeuN, microtubule-associated protein 2 (MAP2), and synapsin”. Moreover, in the assay on iN cells [3] (setting [5]), the “frequency of spontaneous EPSCs” value is reported as “no significant difference” and the “frequency of spontaneous IPSCs” value was “no significant difference”. In the assay on iN cells [3] (blebbistatin-derived iN cells), the IPSC amplitude result is given as “significantly lower”. Also, the “functionality of derived iN cells” value in the assay on iN cells [3] is reported as “functional, exhibiting spontaneous changes in membrane potential in response to current injection”. Moreover, the EPSC amplitude result in the assay with iN cells [3] (iN cells derived with blebbistatin) is recorded as “significantly higher”. In addition, the action potential properties entry with iN cells [3] (iN cells generated in absence vs presence of blebbistatin) was “no apparent difference”. Besides, in the assay with calponin and αSMA (non-transduced fibroblasts), the “calponin- and αSMA-positive cells” value was “less calponin and α-smooth muscle actin (SMA)-positive cells”. The “calponin and αSMA expression, gene and protein level” value in the assay with calponin and αSMA (non-transduced fibroblasts, day 3) is “decreased at the gene and protein level by day 3”. The “Eln and DCN expression” value with calponin and αSMA (qRT-PCR, non- and BAM-transduced fibroblasts) is “downregulated the expression of other mesenchymal and fibroblast-associated genes, Eln and DCN”. Moreover, the HDAC activity entry in assay [4] is on record as “reducing”.
